In ChEMBL document CHEMBL3727358, “Inhibitors of inducible form of 6-phosphofructose-2-kinase” (2014) one finds IC50 data, which are given here for 61 molecules.

Assay [1] addresses T1, 6-phosphofructo-2-kinase/fructose-2,6-bisphosphatase 3 (Homo sapiens, UniProt Q16875). Put plainly: Inhibition of iPFK2 (unknown origin) assessed as reduction in enzyme-mediated fructose-6-phosphate phosphorylation by measuring ATP consumption incubated for 3 hrs by luciferase-luciferin-coupled chemiluminescence assay.
The target in assay [2] is T1, 6-phosphofructo-2-kinase/fructose-2,6-bisphosphatase 3. Put plainly: Inhibition of iPFK2 (unknown origin) assessed as reduction in enzyme-mediated fructose-6-phosphate phosphorylation by measuring NADH absorbance pre-incubated for 10 mins before ATP/substrate addition followed by incubation for 1 hr by UV-Visible spectrometry based iPFK-2/PPI-PFK coupled enzyme assay.

Molecules are shown by their SMILES.

T1 sequence (Q16875 whole entry): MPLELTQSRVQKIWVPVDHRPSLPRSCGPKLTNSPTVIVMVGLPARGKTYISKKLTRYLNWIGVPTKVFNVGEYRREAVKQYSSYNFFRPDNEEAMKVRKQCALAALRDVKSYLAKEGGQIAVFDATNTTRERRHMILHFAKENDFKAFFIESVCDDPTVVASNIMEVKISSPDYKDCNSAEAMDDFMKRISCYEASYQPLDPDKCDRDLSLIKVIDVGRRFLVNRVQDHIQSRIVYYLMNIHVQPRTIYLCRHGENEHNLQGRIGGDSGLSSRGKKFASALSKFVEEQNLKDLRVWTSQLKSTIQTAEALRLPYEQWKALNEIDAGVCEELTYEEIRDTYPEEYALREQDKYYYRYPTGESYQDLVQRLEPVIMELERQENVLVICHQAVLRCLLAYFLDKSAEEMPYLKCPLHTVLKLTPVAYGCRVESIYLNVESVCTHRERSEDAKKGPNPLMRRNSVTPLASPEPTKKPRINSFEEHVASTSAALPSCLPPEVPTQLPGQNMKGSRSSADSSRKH

The term IC50 denotes the midpoint of a concentration-inhibition curve. As for `COc1cccc(-c2cc(NC(C)c3cccc(-c4cnn(C)c4)c3)nc(C)n2)c1F` (configuration not stated), the IC50 in assay [1] is 500 nM; in assay [2], greater than 1000 nM.
The corresponding values for `Cc1nc(NCc2cc(O)ccc2F)cc(-c2ccc3ncsc3c2)n1` are 500 nM and 500 nM.
On to `COc1ccc(Br)c(CNc2cc(-c3ccc4ncsc4c3)nc(C)n2)c1`, for which the results for the IC50 in assay [1] and in assay [2] were greater than 1000 nM and 500 nM, respectively.
As to `CCc1coc2ccc(-c3cc(N[C@@H](C)c4cccc(Br)c4)nc(C)n3)cc12`, the IC50 was greater than 1000 nM in assay [1] and 500 nM in assay [2].
As to `Cc1nc(NC(C)c2cccc(-c3cnn(C)c3)c2)cc(-c2ccc(C(F)(F)F)cc2)n1` (configuration not stated), the IC50 in assay [1] and in assay [2] was greater than 1000 nM each time.
As for `Cc1nc(NC(C)c2cccc(-c3ccc[nH]3)c2)cc(-c2ccc3ncsc3c2)n1` (configuration not stated), the IC50 in assay [1] is greater than 1000 nM; in assay [2] it was 500 nM.
The corresponding values for `C#CCOc1cccc(C(C)Nc2cc(-c3ccc4ncsc4c3)nc(C)n2)c1` (configuration not stated) are 500 nM and 500 nM.
The corresponding values for `Cc1nc(NC(C)c2cccc(OCc3nc(C(=O)O)co3)c2)cc(-c2ccc3ncsc3c2)n1` (configuration not stated) are 500 nM and greater than 1000 nM.
For the molecule `Cc1nc(NC(C)c2cccc(OCC(F)(F)F)c2)cc(-c2ccc3ncsc3c2)n1` (configuration not stated), the IC50 in assay [1] was greater than 1000 nM; in assay [2], 500 nM.
Take `Cc1nc(NC(C)c2cccc(OCC(=O)NC3CCCCC3)c2)cc(-c2ccc3ncsc3c2)n1` (configuration not stated): the IC50 in assay [1] and in assay [2] was 500 nM each time.
Consider `COc1cccc([C@H](C)Nc2cc(-c3cc4ccccc4o3)nc(C)n2)c1`, for which the IC50 in assay [1] and in assay [2] was greater than 1000 nM each time.
As to `Cc1nc(NCc2ccccc2F)cc(-c2ccc3ncsc3c2)n1`, the IC50 in assay [1] was 500 nM; in assay [2], greater than 1000 nM.
On to `Cc1nc(NC(C)c2ccc(F)c(Br)c2)cc(-c2ccc3occ(C)c3c2)n1` (configuration not stated), for which the values for the IC50 in assay [1] and in assay [2] were greater than 1000 nM and 500 nM, respectively.
Turning to `COc1cccc(-c2cc(NC(C)c3cccc(O)c3)nc(C)n2)c1F` (configuration not stated), the IC50 in assay [1] and in assay [2] was greater than 1000 nM in each case.
For `Cc1nc(N[C@@H]2CCCc3ccccc32)cc(-c2cc3ccccc3s2)n1`, the IC50 in assay [1] is greater than 1000 nM; in assay [2] it was 500 nM.
Take `Cc1nc(NC(C)c2cccc(-c3c(C)noc3C)c2)cc(-c2ccc3ncsc3c2)n1` (configuration not stated): the IC50 in assay [1] is greater than 1000 nM; in assay [2] it was 500 nM.
The corresponding values for `Cc1nc(NC(C)c2cccc(N)c2)cc(-c2ccc3ncsc3c2)n1` (configuration not stated) are greater than 1000 nM and 500 nM.
The corresponding values for `Cc1nc(NC(C)c2cccc(-c3cccc(F)c3)c2)cc(-c2ccc3ncsc3c2)n1` (configuration not stated) are greater than 1000 nM and greater than 1000 nM.
As for `Cc1nc(NC(C)c2cccc(OCC3CCCN(C(=O)OC(C)(C)C)C3)c2)cc(-c2ccc3ncsc3c2)n1` (configuration not stated), the IC50 in assay [1] and in assay [2] was greater than 1000 nM throughout.
As to `Cc1nc(NC(C)c2cccc([N+](=O)[O-])c2)cc(-c2ccc3ncsc3c2)n1` (configuration not stated), the IC50 in assay [1] and in assay [2] was 500 nM in each case.
For the molecule `Cc1nc(N[C@@H]2CCCc3ccccc32)cc(-c2ccc(C#N)cc2)n1`, the IC50 in assay [1] and in assay [2] was greater than 1000 nM each time.
For `Cc1nc(NC(C)c2cccc(OCC(=O)Nc3ccccc3)c2)cc(-c2ccc3ncsc3c2)n1` (configuration not stated), the IC50 in assay [1] and in assay [2] was greater than 1000 nM each time.
As for `Cc1nc(NC(C)c2cccc(OCC#N)c2)cc(-c2ccc3ccn(C)c3c2)n1` (configuration not stated), the IC50 in assay [1] and in assay [2] was 500 nM each time.
With `COc1ccc(-c2cccc(C(C)Nc3cc(-c4ccc5ncsc5c4)nc(C)n3)c2)cn1` (configuration not stated), the results for the IC50 in assay [1] and in assay [2] were greater than 1000 nM and 500 nM, respectively.
For the molecule `Cc1nc(NC(C)c2cccc(OCCS(C)(=O)=O)c2)cc(-c2ccc3ncsc3c2)n1` (configuration not stated), the IC50 in assay [1] and in assay [2] was greater than 1000 nM in each case.
As to `Cc1nc(N[C@@H]2CCCc3ccccc32)cc(-c2cnc3ccccc3c2)n1`, the figures for the IC50 in assay [1] and in assay [2] were 500 nM and greater than 1000 nM, respectively.
Take `COC(=O)COc1ccc(F)c(CNc2cc(-c3ccc4ncsc4c3)nc(C)n2)c1`: the IC50 in assay [1] and in assay [2] was greater than 1000 nM each time.
As for `Cc1nc(NC(C)c2cccc(OCC3CCN(C(=O)OC(C)(C)C)CC3)c2)cc(-c2ccc3ncsc3c2)n1` (configuration not stated), the IC50 in assay [1] and in assay [2] was greater than 1000 nM each time.
Regarding `Cc1nc(NC(C)c2cccc(OCC3CCCN(C(=O)OC(C)(C)C)C3)c2)cc(-c2ccc3occ(C)c3c2)n1` (configuration not stated), the IC50 in assay [1] was greater than 1000 nM; in assay [2], 500 nM.
In the case of `COc1ccc(F)c(CNc2cc(-c3ccc4ncsc4c3)nc(C)n2)c1`, the IC50 is 500 nM in assay [1] and greater than 1000 nM in assay [2].
As for `Cc1nc(N[C@@H]2CCCc3ccccc32)cc(-c2ccc3cnn(C)c3c2)n1`, the IC50 in assay [1] and in assay [2] was 500 nM in each case.
With `Cc1cc(COc2ccc(F)c(CNc3cc(-c4ccc5ncsc5c4)nc(C)n3)c2)n(C)n1`, the IC50 in assay [1] and in assay [2] was greater than 1000 nM each time.
For the molecule `CCOC(=O)c1cncc(-c2cccc(C(C)Nc3cc(-c4ccc5ncsc5c4)nc(C)n3)c2)c1` (configuration not stated), the results for the IC50 in assay [1] and in assay [2] were greater than 1000 nM and 500 nM, respectively.
For `Cc1nc(N[C@@H]2CCOc3ccccc32)cc(-c2ccc3ncsc3c2)n1`, in that order: greater than 1000 nM and greater than 1000 nM.
For `Cc1nc(NCC2CCCN(C(=O)C3CCCC3)C2)cc(-c2ccc3ncsc3c2)n1` (configuration not stated), the IC50 is 500 nM in assay [1] and greater than 1000 nM in assay [2].
The corresponding values for `Cc1nc(NC(C)c2ccc(Cl)c(O)c2)cc(-c2ccc3occ(C)c3c2)n1` (configuration not stated) are greater than 1000 nM and 500 nM.
For `Cc1ccc(OCc2noc(COc3cccc(C(C)Nc4cc(-c5ccc6ncsc6c5)nc(C)n4)c3)n2)cc1` (configuration not stated), the IC50 in assay [1] and in assay [2] was greater than 1000 nM throughout.
In the case of `Cc1cc(-c2cccc(C(C)Nc3cc(-c4ccc5ncsc5c4)nc(C)n3)c2)ccn1` (configuration not stated), the IC50 in assay [1] and in assay [2] was 500 nM throughout.
On to `Cc1nc(NC(C)c2cccc(-c3cnn(C)c3)c2)cc(-c2ccc(F)c(C)c2)n1` (configuration not stated), for which the IC50 was greater than 1000 nM in assay [1] and 500 nM in assay [2].
The corresponding values for `Cc1nc(N[C@@H](C)c2ccccc2)cc(-c2ccc3ncsc3c2)n1` are greater than 1000 nM and greater than 1000 nM.
For `Cc1nc(NC(C)c2cccc(-c3ccoc3)c2)cc(-c2ccc3ncsc3c2)n1` (configuration not stated), in that order: greater than 1000 nM and greater than 1000 nM.
The corresponding values for `Cc1nc(NCC2CCCNC2)cc(-c2ccc3ncsc3c2)n1` (configuration not stated) are greater than 1000 nM and greater than 1000 nM.
On to `CCN(CC)C(=O)COc1cccc(C(C)Nc2cc(-c3cccc(OC)c3F)nc(C)n2)c1` (configuration not stated), for which the 50% inhibitory concentration (IC50) in assay [1] and in assay [2] was greater than 1000 nM throughout.
As for `Cc1nc(N[C@@H]2CCCc3ccccc32)cc(-c2cc3ccccc3[nH]2)n1`, the IC50 in assay [1] and in assay [2] was greater than 1000 nM each time.
As for `Cc1nc(NC(C)c2cccc(-c3ccc(N(C)C)nc3)c2)cc(-c2ccc3ncsc3c2)n1` (configuration not stated), the IC50 in assay [1] and in assay [2] was 500 nM throughout.
In the case of `Cc1nc(NC(C)c2cccc(-c3ccsc3)c2)cc(-c2ccc3ncsc3c2)n1` (configuration not stated), the IC50 in assay [1] and in assay [2] was greater than 1000 nM in each case.
Turning to `Cc1ccc(COc2cccc(C(C)Nc3cc(-c4ccc5ncsc5c4)nc(C)n3)c2)cc1` (configuration not stated), the IC50 in assay [1] and in assay [2] was greater than 1000 nM each time.
On to `Cc1nc(N[C@H](C)c2cccc(-n3cnnn3)c2)cc(-c2ccc3occ(C)c3c2)n1`, for which the values for the IC50 in assay [1] and in assay [2] were 500 nM and greater than 1000 nM, respectively.
For `Cc1nc(NC(C)c2cccc(OCC3CCNCC3)c2)cc(-c2ccc3ncsc3c2)n1` (configuration not stated), in that order: 500 nM and 500 nM.
The corresponding values for `Cc1nc(N[C@H](C)c2cccc(O)c2)cc(-c2ccc3ncsc3c2)n1` are greater than 1000 nM and greater than 1000 nM.
Regarding `COC(=O)c1coc(COc2cccc(C(C)Nc3cc(-c4ccc5ncsc5c4)nc(C)n3)c2)n1` (configuration not stated), the IC50 in assay [1] and in assay [2] was greater than 1000 nM each time.
Turning to `Cc1nc(NC(C)c2ccccc2C)cc(-c2ccc3occ(C)c3c2)n1` (configuration not stated), the IC50 in assay [1] and in assay [2] was greater than 1000 nM each time.
In the case of `Cc1nc(NCC2CCCN(C(=O)C3(C)CC3)C2)cc(-c2ccc3ncsc3c2)n1` (configuration not stated), the half-inhibitory concentration (IC50) in assay [1] is 500 nM; in assay [2], greater than 1000 nM.
For `Cc1nc(NC(C)c2cccc(-c3cnn(C)c3)c2)cc(-c2ccc(C(C)C)cc2)n1` (configuration not stated), the values for the IC50 in assay [1] and in assay [2] were greater than 1000 nM and 500 nM, respectively.
With `Cc1nc(NC(C)c2cccc(OCCn3cccn3)c2)cc(-c2ccc3ncsc3c2)n1` (configuration not stated), the figures for the IC50 in assay [1] and in assay [2] were greater than 1000 nM and 500 nM, respectively.
Take `COc1cccc([C@H](C)Nc2cc(-c3cnc4ccn(C)c4c3)nc(C)n2)c1`: the IC50 in assay [1] and in assay [2] was greater than 1000 nM each time.
As to `Cc1nc(NCc2cc(Br)ccc2F)cc(-c2ccc3ncsc3c2)n1`, the IC50 in assay [1] and in assay [2] was greater than 1000 nM throughout.
In the case of `Cc1nc(N[C@H](C)c2ccc(F)c(-c3cnn(C)c3)c2)cc(-c2ccc3occ(C)c3c2)n1`, the values for the half-inhibitory concentration (IC50) in assay [1] and in assay [2] were greater than 1000 nM and 500 nM, respectively.
The corresponding values for `Cc1nc(NC(C)c2cccc(OCC(=O)C3CC3)c2)cc(-c2ccc3ncsc3c2)n1` (configuration not stated) are greater than 1000 nM and greater than 1000 nM.
The corresponding values for `Cc1nc(NC(C)c2cccc(-c3cccnc3F)c2)cc(-c2ccc3ncsc3c2)n1` (configuration not stated) are greater than 1000 nM and 500 nM.
The corresponding values for `COC(=O)COc1cccc(C(C)Nc2cc(-c3ccc4ncsc4c3)nc(C)n2)c1` (configuration not stated) are greater than 1000 nM and greater than 1000 nM.
